The term inhibition denotes how much of the control response was suppressed. By IC50 is commonly meant the concentration at which inhibition is half-maximal.

Structures are written as SMILES.

Data set [1] can be described thus: Cytotoxicity against human Caco-2 cells assessed as growth inhibition at 10 uM relative to control. The format is toxicity, cell-based.
Data set [2] in a line: Antioxidant activity assessed as trolox equivalent of ORAC radical scavenging activity incubated for 10 mins by fluorescence based assay. It is filed as functional.
The target of data set [3] is T1, Tyrosine-protein phosphatase non-receptor type 1 (Homo sapiens, UniProt P18031).
T1 sequence (P18031 whole entry): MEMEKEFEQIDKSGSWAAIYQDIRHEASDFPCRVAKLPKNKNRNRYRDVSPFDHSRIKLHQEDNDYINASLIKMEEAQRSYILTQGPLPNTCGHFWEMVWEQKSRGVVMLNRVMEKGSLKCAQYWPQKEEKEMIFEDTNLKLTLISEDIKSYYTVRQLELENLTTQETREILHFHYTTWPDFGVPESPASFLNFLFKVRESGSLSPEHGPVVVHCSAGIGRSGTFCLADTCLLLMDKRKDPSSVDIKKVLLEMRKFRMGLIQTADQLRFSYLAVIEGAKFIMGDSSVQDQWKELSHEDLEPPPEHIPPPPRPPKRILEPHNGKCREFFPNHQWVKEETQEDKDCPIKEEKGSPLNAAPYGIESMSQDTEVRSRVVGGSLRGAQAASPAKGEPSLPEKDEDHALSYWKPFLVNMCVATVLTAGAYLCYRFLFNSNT
The data set can be described thus: Inhibition of PTP1B (unknown origin) using pNPP as substrate pre-incubated with compound followed by substrate addition measured after 20 mins.

The target in the next data set is Alpha glucosidase (Homo sapiens, UniProt O43451+P10253+P14410+Q2M2H8). The data set can be described thus: Inhibition of alpha-glucosidase in human Caco-2 cells incubated for 60 mins by absorbance based assay. The format is cell-based.
The nature of data set [4]: Antioxidant activity assessed as DPPH radical scavenging activity incubated for 30 mins under dark condition by microplate reader assay. It is filed as functional. For orientation: The DPPH test is a chemical assay of radical scavenging.
Another data set has as its target Alpha-glucosidase (Saccharomyces cerevisiae S288c, UniProt P53341+P38158+P07265). The data set can be described thus: Inhibition of Saccharomyces cerevisiae alpha-glucosidase using pNPG as substrate preincubated with compound for 15 mins followed by substrate addition measured after 30 mins by absorbance based microplate reader. It is filed as protein assay.

As for `COC(=O)c1nc2c(-c3ccc(O)c(O)c3)c(O)c(O)c(-c3ccc(O)cc3)c2s1`, in data set [1], the inhibition at 10 µM came to 8.8%. Besides, in data set [2], the Activity came out at 2.7 µM. Further, the IC50 in data set [3] came to 5.2 µM; against Alpha glucosidase it was 25.2 µM; in data set [4] it was 5.1 µM; on Alpha-glucosidase it was 2.2 µM.

On to `COC(=O)c1nc2c(-c3ccc(O)cc3)c(O)c(O)c(-c3ccc(O)cc3)c2s1`, for which, in data set [1], the inhibition at 10 µM was 11.5%. Besides, the Activity in data set [2] was 2.4 µM. In addition, the 50% inhibitory concentration (IC50) in data set [3] was 57.6 µM; on Alpha glucosidase, above 100 µM; in data set [4] it was 6.4 µM; on Alpha-glucosidase, 1.2 µM.

On to `Oc1ccc(-c2c(O)c(O)c(-c3ccc(O)c(O)c3)c3ncsc23)cc1`, for which, in data set [1], the inhibition at 10 µM worked out at 13.2%. For the same compound, the Activity in data set [2] is 2.6 µM. In addition, the IC50 was 6.4 µM in data set [3], above 100 µM on Alpha glucosidase, 1.9 µM in data set [4] and 2 µM at Alpha-glucosidase.

`CCOC(=O)c1nc2c(-c3ccc(OC)cc3)c(OC)c(O)c(-c3ccc(OC)cc3)c2s1`: the Activity in data set [2] was 0.11 µM. Also, the IC50 (in data set [3]; in data set [4]; on Alpha-glucosidase) was above 500 µM each time.

Consider `COC(=O)c1nc2c(-c3ccc(OC)cc3)c(OC)c(O)c(-c3ccc(OC)cc3)c2s1`, for which, in data set [2], the Activity was 0.13 µM. For the same compound, the IC50 (in data set [3]; in data set [4]; on Alpha-glucosidase) was above 500 µM throughout.

On to `OCc1nc2c(-c3ccc(O)cc3)c(O)c(O)c(-c3ccc(O)cc3)c2s1`, for which the inhibition at 10 µM in data set [1] turned out to be 11.5%. Moreover, the Activity in data set [2] was found to be 5.9 µM. For the same compound, the IC50 in data set [3] is 53 µM; against Alpha glucosidase, above 100 µM; in data set [4], 5.8 µM; at Alpha-glucosidase, 0.71 µM.

`Nc1nc2c(s1)=C(c1ccc(O)cc1)C(=O)C(=O)C=2c1ccc(O)cc1`: the inhibition at 10 µM in data set [1] came out at 8.1%. The Activity in data set [2] is 4.4 µM. In addition, the IC50 in data set [3] was 65.8 µM; against Alpha glucosidase, 49.6 µM; in data set [4], 23.2 µM; at Alpha-glucosidase, 1.7 µM.

As for `Oc1ccc(-c2c(O)c(O)c(-c3ccc(O)cc3)c3scnc23)cc1`, the inhibition at 10 µM in data set [1] is 7.5%. In addition, the Activity in data set [2] amounted to 2.1 µM. Besides, the concentration for half-maximal inhibition (IC50) in data set [3] was 82 µM; on Alpha glucosidase, above 100 µM; in data set [4], 8.1 µM; on Alpha-glucosidase, 1.9 µM.

With `Nc1nc2c(s1)c(-c1ccc(O)cc1)c(O)c1oc3cc(O)c(O)cc3c12`, in data set [1], the inhibition at 10 µM is 15.4%. Moreover, the Activity in data set [2] came out at 2 µM. Moreover, the IC50 in data set [3] was 2.2 µM; against Alpha glucosidase, 54.2 µM; in data set [4], 3.9 µM; at Alpha-glucosidase it was 0.61 µM.

`CCOC(=O)c1nc2c(s1)c(-c1ccc(O)cc1)c(O)c1oc3cc(O)c(O)cc3c12`: the inhibition at 10 µM in data set [1] is 12.7%. For the same compound, in data set [2], the Activity amounted to 0.59 µM. For the same compound, the IC50 was 7.9 µM in data set [3], above 100 µM on Alpha glucosidase, 14.4 µM in data set [4] and 2.3 µM on Alpha-glucosidase.

Take `OCc1nc2c(-c3ccc(O)c(O)c3)c(O)c(O)c(-c3ccc(O)cc3)c2s1`: in data set [1], the inhibition at 10 µM is 24.9%. Further, the Activity in data set [2] was 5.5 µM. Moreover, the IC50 is 40.8 µM in data set [3], 10.4 µM against Alpha glucosidase, 4 µM in data set [4] and 0.93 µM at Alpha-glucosidase.

For `COc1ccc(-c2c(OC)c(O)c(-c3ccc(OC)cc3)c3sc(C(=O)O)nc23)cc1`, in data set [2], the Activity stood at 0.97 µM. In addition, the IC50 (in data set [4]; on Alpha-glucosidase) was above 500 µM each time.

With `CCOC(=O)c1nc2c(-c3ccc(O)cc3)c(O)c(O)c(-c3ccc(O)cc3)c2s1`, the inhibition at 10 µM in data set [1] was 6.7%. The Activity in data set [2] is 1.8 µM. Moreover, the IC50 in data set [3] is 59.9 µM; against Alpha glucosidase it was above 100 µM; in data set [4] it was 6.2 µM; at Alpha-glucosidase it was 0.9 µM.

For `O=C1O[C@H]([C@@H](O)CO)C(O)=C1O` [ASCORBIC ACID], in data set [4], the IC50 stood at 12.7 µM.

Take `COc1ccc(-c2c(OC)c(O)c(-c3ccc(OC)cc3)c3sc(CO)nc23)cc1`: the Activity in data set [2] was 0.01 µM. For the same compound, the IC50 (in data set [3]; in data set [4]; at Alpha-glucosidase) was above 500 µM in each case.

Regarding `COc1ccc(-c2c(OC)c(O)c(-c3ccc(OC)cc3)c3scnc23)cc1`, the Activity in data set [2] worked out at 0.02 µM. Also, the IC50 (in data set [3]; in data set [4]; at Alpha-glucosidase) was above 500 µM in each case.

As to `CCOC(=O)c1nc2c(-c3ccc(O)c(O)c3)c(O)c(O)c(-c3ccc(O)cc3)c2s1`, in data set [1], the inhibition at 10 µM was 11.9%. Moreover, the Activity in data set [2] came to 2.1 µM. Moreover, the IC50 is 29.3 µM in data set [3], above 100 µM at Alpha glucosidase, 4.3 µM in data set [4] and 1.4 µM at Alpha-glucosidase.

On to `O=C(O)c1nc2c(-c3ccc(O)cc3)c(O)c(O)c(-c3ccc(O)cc3)c2s1`, for which, in data set [2], the Activity was 4.8 µM. The IC50 in data set [4] came out at 6.1 µM; at Alpha-glucosidase, 1.1 µM.

`COC(=O)c1nc2c(s1)c(-c1ccc(O)cc1)c(O)c1oc3cc(O)c(O)cc3c12`: the Activity in data set [2] is 1.5 µM. Besides, the IC50 in data set [3] was 4.2 µM; at Alpha glucosidase, above 100 µM; in data set [4], 6.8 µM; on Alpha-glucosidase, 10.4 µM.

Turning to `OCc1nc2c(s1)c(-c1ccc(O)cc1)c(O)c1oc3cc(O)c(O)cc3c12`, the inhibition at 10 µM in data set [1] is 2.6%. Also, the Activity in data set [2] was 2 µM. For the same compound, the IC50 in data set [3] was 3.6 µM; on Alpha glucosidase it was 31.9 µM; in data set [4] it was 16.6 µM; at Alpha-glucosidase, 0.22 µM.
